According to patent US12612408B2, “Pyrazolone-fused pyrimidine compound, preparation method for same and applications thereof” (SHANGHAI PHARMACEUTICALS HOLDING CO., LTD., priority 2019, dated 2026):
Blank lines part the entries; values can stand above or below the compound they belong to.

Experiments:
WEE1 kinase = molecular target: T1, WEE1 kinase (Homo sapiens, UniProt P30291); assay: Inhibitory effect of compound on WEE1 kinase in vitro (ELISA); assay type: biochemical; settings: ATP concentration of Km
T1 construct: purchased CarnaBiosciences, Inc. 05-177
T1 sequence (P30291 whole entry): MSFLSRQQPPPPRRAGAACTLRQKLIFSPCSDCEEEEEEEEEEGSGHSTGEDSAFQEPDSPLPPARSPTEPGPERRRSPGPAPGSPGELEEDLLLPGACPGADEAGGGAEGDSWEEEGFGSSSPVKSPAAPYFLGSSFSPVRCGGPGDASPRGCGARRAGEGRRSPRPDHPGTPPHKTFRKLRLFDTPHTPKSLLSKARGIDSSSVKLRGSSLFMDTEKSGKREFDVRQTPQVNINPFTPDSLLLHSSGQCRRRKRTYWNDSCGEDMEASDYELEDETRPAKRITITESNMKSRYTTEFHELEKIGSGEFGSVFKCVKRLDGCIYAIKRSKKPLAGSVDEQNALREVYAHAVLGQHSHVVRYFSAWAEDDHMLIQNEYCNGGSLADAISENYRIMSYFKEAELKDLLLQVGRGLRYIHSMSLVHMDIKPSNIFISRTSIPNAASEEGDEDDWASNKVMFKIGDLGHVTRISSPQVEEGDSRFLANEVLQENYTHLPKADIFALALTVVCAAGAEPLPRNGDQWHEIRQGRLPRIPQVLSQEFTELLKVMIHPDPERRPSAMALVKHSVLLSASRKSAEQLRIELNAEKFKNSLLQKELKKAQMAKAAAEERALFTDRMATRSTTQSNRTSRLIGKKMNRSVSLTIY
Method: The tested compounds were screened on WEE1 kinase with ATP concentration of Km by ELISA. Compounds were screened on WEE1 kinase to evaluate the kinase inhibitory activity of the tested compounds. In the detection process, the initial concentration of the tested compounds was all selected as 100 nM, and each compound was selected with 6 gradient dilution concentrations, the gradient dilution ratio was 4-fold, and two replicate wells were detected for each concentration, MK1775 was used as the standard control.
WEE1, purchased from CarnaBiosciences, Inc., Item No. 05-177; dimethyl sulfoxide, purchased from Sigma-Aldrich, Item No. D8418; ATP, purchased from Sigma-Aldrich, Item No. A7699; DTT solution, purchased from Sigma-Aldrich, Item No. 43816; protein tyrosine kinase (PTK) substrate (poly-Glu-Tyr), purchased from Sigma-Aldrich, Item No. P4476; P-Tyr (PY99), purchased from Santa Cruz, Item No. sc-7020; Anti-mouse IgG HRP-linked Antibody, purchased from Santa Cruz, Item No. 7076S; TMB liquid Substrate System, purchased from Sigma-Aldrich, Item No. T0440; Costar Stripwell Microplate No Lid 1×8 Flat Bottom, Certified High Binding, purchased from Sigma-Aldrich, Item No. 42592; 96-well compound plate, purchased from Thermo Scientific, Item No. 267245.
• 1. Coating substrate: 1) An appropriate volume of substrate storage solution protein tyrosine kinase (PTK) substrate (poly-Glu-Tyr) was taken, diluted 10 times with PBS, and the concentration was diluted from […]. The mixture was added to a high adsorption 96-well plate at 125 μL per well. The plate was placed in an incubator at 37° C. for overnight coating. 2) After 24 hours, the 96-well plate was taken out, the liquid in the 96-well plate was poured out, cleaned with washing buffer for 3 times, and the incubator at 37° C. was inverted and dried for 2 hours. • 2. Compound preparation and transfer: 1) compound dilution: 10 mM of the test compound storage solution was taken, the compound in 96-well compound plate was diluted with DMSO in multiple steps to obtain the initial concentration of 100× compound as the first concentration, and then DMSO was used for 4-fold gradient dilution, for a total of 6 concentrations; after that, 2 μL of the gradient dilution solution was added to 48 μL of 1× reaction buffer respectively to prepare 4× compound; 2) 4× compounds were transferred: 10 μL of 4× compounds from the 96-well compound plate configured in the previous step were transferred into the dried high adsorption 96-well plate; 10 μL of the following liquids were added to the compound-free control wells and ATP-control wells: 2 μL of DMSO was added to 48 μL of 1× reaction buffer. • 3. Enzyme reaction stage: 1) WEE1 kinase and ATP were prepared into 2× enzyme solution and 4×ATP solution respectively with 1× reaction buffer. In this screening, the final concentration of WEE1 kinase was: 0.15 ng/μL and the final concentration of ATP was: […]; 2) 20 μL of enzyme solution of 2 was added to the high adsorption 96-well plate; 3) 10 μL of 4×ATP solution was added to the high adsorption 96-well plate and 10 μL of 1× reaction buffer was added to the ATP-control group; 4) the plate was placed in HERAEUS Multifuge X1R centrifuge at 2000 rpm for 20 s and then placed at room temperature and reacted for 60 min. • 4. Reaction termination stage: 1) the reaction mixture in the plate was poured out, 200 μL of washing buffer was added to each well, and washed for 5 times; the primary antibody P-Tyr (PY99) (dilution ratio 1:2000) was added, 100 μL per well, at room temperature for 30 min. 2) The primary antibody in the plate was poured out, 200 μL of washing buffer was added to each well, and washed for 5 times; the second antibody Anti-mouse IgG HRP-linked Antibody (dilution ratio 1:2000) was added, 100 μL per well, at room temperature for 30 min.

[1] = Bioavailability test in vivo in mice (pharmacokinetics, iv and intragastric); set-up: species or system ICR mice
Method: 404.6 μL of DMSO was added to the compound powder of the present disclosure until the compound was completely dissolved, and 50 mg/mL mother liquor was prepared in a clarified state.
The compound of the present disclosure: 24 μL of mother liquor was accurately measured, diluted to 4 mL according to the ratio of 0.9% normal saline:PEG400=8:2, the preparation concentration was 0.3 mg/mL, the solution was in a clarified state, and it was used as intravenous administration solution. In addition, 80 μL mother liquor was accurately measured, and 0.5% CMC-Na was added to 8 mL to grind it into a uniform suspension with a concentration of 0.5 mg/mL, which was used as intragastric administration solution.
Intravenous group: 24 ICR mice, 20±2 g, were given the intravenous administration solution of the compound of the present disclosure by intravenous injection, with the volume of 10 mL/kg, with the dose of 3 mg/kg, the blood was taken from the fundus venous plexus of mice, 2, 5, 15, 30, 60, 90, 120, 240, 360, 480, 600 and 1440 minutes before and after administration.
Intragastric group: 24 ICR mice, 20±2 g, were given the intragastric administration solution of the compound of the present disclosure by intragastric injection, with the volume of 20 mL/kg, with the dose of 10 mg/kg, the blood was taken from the fundus venous plexus of mice, 5, 15, 30, 60, 90, 120, 240, 360, 480, 600 and 1440 minutes before and after administration.
Blood sample was centrifuged at 8000 rpm for 5 min, and the plasma was stored in a centrifuge tube at −20° C. for later use.
300 μL of acetonitrile containing internal standard (Propranolol, 25 ng/mL) was added to 50 μL of plasma samples to precipitate protein, vortexed for 10 min, 6000 g, 4° C., centrifuged for 10 min; the supernatant before intravenous injection for 1 hour was taken, diluted 10 times with acetonitrile containing internal standard, the rest supernatant was kept undiluted, centrifuged for 10 min again at 6000 g, 4° C., and the supernatant was taken and then injected into a 96-well plate.
(§1) Dose; peak concentration: Cmax; peak time: Tmax; area under the drug-time curve from AUClast 0 to time t; half-life: T1/2; mean retention time: MRT; clearance: Cl; apparent distribution volume: Vz; steady-state distributed volume: Vss; absolute bioavailability: F.
The pharmacokinetic parameters of the compound in mice after intravenous injection or intragastric administration were shown in Table 4 and Table 5 below.

[2] = Bioavailability test in vivo in cynomolgus monkey (pharmacokinetics, IV and PO); settings: cynomolgus monkeys
Method: Twelve male Non-Naïve cynomolgus monkeys were purchased from GuangxiGuidong Primate Development Experiment Co. LTD.
54.31 mg of I-8-1 was accurately weighed, and 1.08 mL of DMSO was added, then the mixture was vortexed for 1 min, sonicated for 15 min, and then diluted to 36 mL according to the ratio of 10% HP-β-cyclodextrin (prepared by normal saline): PEG=8:2, vortexed for 1 min. A colorless clarified administration solution (the pH value was about 7) at a concentration of 1.5 mg/mL was prepared for intravenous administration to Group 1.
300.9 mg of I-8-1 was accurately weighed, and 75 mL of 0.5% CMC-Na was added, the mixture was fully ground and stirred for 5 min. A white suspension (the pH value was about 7) at a concentration of 4 mg/mL was prepared for oral administration to Group 2.
54.05 mg of AZD1775 was accurately weighed, and 1.08 mL of DMSO was added, then he mixture was vortexed for 1 min, sonicated for 15 min, and then diluted to 36 mL according to the ratio of 10%-D-cyclodextrin (prepared by normal saline): PEG=8:2, vortexed for 1 min. A yellow clarified administration solution (the pH value was about 7) at a concentration of 1.5 mg/mL was prepared for intravenous administration to Group 3.
300.7 mg of AZD1775 was accurately weighed, and 75 mL of 0.5% CMC-Na was added, the mixture was fully ground and stirred for 5 min. A yellow suspension (the pH value was about 7) at a concentration of 4 mg/mL was prepared for oral administration to Group 4.
Before administration, all animals were fasted overnight (approximately 12 hours) and fed as required and administered according to the table below.
Intravenous group: before administration (0 h), 0.033 h, 0.083 h, 0.25 h, 0.5 h, 1 h, 1.5 h, 2 h, 4 h, 6 h, 8 h, 12 h, 24 h after administration.
Oral group: before administration (0 h), 0.083 h, 0.25 h, 0.5 h, […], 2 h, 4 h, 6 h, 8 h, 12 h, 24 h after administration.
Blood samples were collected by puncture through lower limb vein or other suitable blood vessels at 1 mL/time point (3 mL of blood samples were collected from each animal before administration), anticoagulated with heparin sodium, and placed on ice after collection. Plasma was separated at 2200 g/min, 10 min, 2-8° C., plasma samples were stored in a −80° C. refrigerator before being transferred to the client. Plasma samples are stored in dry ice and transferred to the client. The final treatment of the sample will be recorded in the experimental record.
300 μL of acetonitrile was added to 50 μL of plasma samples containing internal standard (Propranolol, 25 ng/mL) to precipitate protein, vortexed for 10 min, centrifuged at 6000 g for 10 min, after I-8-1&AZD1775 intravenous injection group was diluted 10 times with internal standard acetonitrile (Propranolol, 25 ng/mL) at the time point before 1 hour, the remaining supernatant was not diluted, centrifuged again at 6000 g at 4° C. for 10 min, and the supernatant was taken and injected into a 96 well plate.
as §1
The pharmacokinetic parameters of the compound in cynomolgus monkeys after intravenous injection or intragastric administration were shown in Table 6 below.

[3] = ICR, mouse, plasma, iv, 3 mg/kg
[4] = ICR, mouse, plasma, po (intragastric), 10 mg/kg
[5] = male, cynomolgus monkey, plasma, iv, 3 mg/kg
[6] = male, cynomolgus monkey, plasma, po, 20 mg/kg, fasted

IC50 (WEE1 kinase): 1.68 nM
Compound: C=CCn1c(=O)c2cnc(Nc3ccc(C4CCC(C#N)CC4)cc3)nc2n1-c1cccc(C2(O)COC2)n1 (stereo not drawn) [Compound I-38]

IC50 (WEE1 kinase): 7.39 nM
Compound: C=CCn1c(=O)c2cnc(Nc3ccc(C4CCC(=NOC)CC4)cc3)nc2n1-c1cccc(C(C)(C)O)n1 (stereo not drawn) [Compound I-32]

IC50 (WEE1 kinase): 7.15 nM
Compound: C=CCn1c(=O)c2cnc(Nc3ccc(C4CCC(C(=O)O)CC4)cc3)nc2n1-c1cccc(C(C)(C)O)n1 (stereo not drawn) [Compound I-5, 4-(4-((2-allyl-1-(6-(2-hydroxypropan-2-yl)pyridin-2-yl)-3-oxo-2,3-dihydro-1H-pyrazolo[3,4-d]pyrimidin-6-yl)amino)phenyl)cyclohexane-1-carboxylic acid]

IC50 (WEE1 kinase): 1.99 nM
Compound: C=CCn1c(=O)c2cnc(Nc3ccc(C4CCC(N5CCOC5=O)CC4)cc3)nc2n1-c1cccc(C2(O)COC2)n1 (stereo not drawn) [Compound I-37]

Further lines, the compound ahead of its results:

Compound: C=CCn1c(=O)c2cnc(Nc3ccc(C4CCC(N5CCC5)CC4)cc3)nc2n1-c1cccc(C2(O)COC2)n1 (single isomer, unassigned) [Compound I-36-2]
IC50 (WEE1 kinase): 2.92 nM

Compound: C=CCn1c(=O)c2cnc(Nc3ccc(C4CCC(N(C)C)CC4)cc3)nc2n1-c1cccc(C(C)(C)O)n1 (single isomer, unassigned) [Compound I-1-2]
IC50 (WEE1 kinase): 2.08 nM

Compound: C=CCn1c(=O)c2cnc(Nc3ccc(C4CCC(N5CCC5)CC4)cc3)nc2n1-c1cccc(C(C)(C)O)n1 (single isomer, unassigned) [Compound I-8-2]
IC50 (WEE1 kinase): 3.52 nM

Compound: C=CCn1c(=O)c2cnc(Nc3ccc(N4CCN(C)CC4)cc3)nc2n1-c1cccc(C(C)(C)O)n1 [Control 1, reference compound]
Cmax [1, 3]: 774 ± 53.8 ng/mL
MRT [1, 3]: 0.42 ± 0.02 h
Tmax [1, 3]: 0.05 ± 0.03 h
clearance [1, 3]: 183 mL/min/kg
half-life [1, 3]: 0.65 ± 0.03 h
Vd ([1]; ICR, mouse, plasma, iv, 3 mg/kg, iv, 3 mg/kg, read-out: Vss): 4.58 ± 0.44 L/kg
Vd ([1]; ICR, mouse, plasma, iv, 3 mg/kg, iv, 3 mg/kg, read-out: Vz): 10.3 ± 1.12 L/kg
bioavailability ([1]; ICR, mouse, plasma, po 10 mg/kg vs iv 3 mg/kg, read-out: F (absolute bioavailability)): 16.7%
Cmax [1, 4]: 205 ± 124 ng/mL
MRT [1, 4]: 4.33 ± 0.28 h
Tmax [1, 4]: 0.33 ± 0.14 h
half-life [1, 4]: 3.1 ± 0.22 h
AUClast ([1]; iv, 3 mg/kg): 273.1 ± 21.34 (h) (ng/mL)
AUClast ([1]; po (intragastric), 10 mg/kg): 151.7 ± 62.14 (h) (ng/mL)
AUCextra ([2]; iv, 3 mg/kg): 47.62 ± 58.18 (h)*(ng/mL)
AUClast ([2]; iv, 3 mg/kg): 4494 ± 1719 (h)*(ng/mL)
AUCtot ([2]; iv, 3 mg/kg): 4542 ± 1777 (h)*(ng/mL)
thalf ([2]; iv, 3 mg/kg): 2.78 ± 0.26 h
AUCextra ([2]; po, 20 mg/kg, fasted): 8.46 ± 1.91 (h)*(ng/mL)
AUClast ([2]; po, 20 mg/kg, fasted): 8155 ± 818.2 (h)*(ng/mL)
AUCtot ([2]; po, 20 mg/kg, fasted): 8163 ± 819.7 (h)*(ng/mL)
thalf ([2]; po, 20 mg/kg, fasted): 2.03 ± 1.22 h
Vd ([2]; male, cynomolgus monkey, plasma, iv, 3 mg/kg, iv, 3 mg/kg, read-out: Vss): 4.33 ± 0.74 L/kg
Vd ([2]; male, cynomolgus monkey, plasma, iv, 3 mg/kg, iv, 3 mg/kg, read-out: Vz): 2.84 ± 0.76 L/kg
Cmax [2, 5]: 1200 ± 134 ng/mL
MRT [2, 5]: 6.53 ± 2.51 h
Tmax [2, 5]: 2.69 ± 4.6 h
clearance [2, 5]: 12 mL/min/kg
bioavailability ([2]; male, cynomolgus monkey, plasma, po 20 mg/kg vs iv 3 mg/kg, read-out: BA (absolute bioavailability)): 27.2%
Cmax [2, 6]: 1630 ng/mL
MRT [2, 6]: 3.58 ± 0.07 h
Tmax [2, 6]: 2 h
